Patent publication US5496835A, “Heterocyclic compounds having angiotensin II antagonistic activity and use thereof” (Takeda Chemical Industries, Ltd., priority 1992, dated 1996)

Assays:
AII receptor = molecular target: T1, AII receptor (Bos taurus, UniProt P25104); assay: Inhibition of binding of 125I-angiotensin II to AII receptor membrane fraction; conditions: bovine adrenal cortex membrane fraction, 125I-AII, read-out: Binding-inhibitory action (rate) %; for inhibition at 1 µM: compound 10^-6 M; for inhibition at 0.1 µM: compound 10^-7 M
T1 construct: An AII receptor membrane fraction was prepared from bovine adrenal cortex; from tissue; host or cells: bovine adrenal cortex, membrane fraction
T1 sequence (P25104 1-359): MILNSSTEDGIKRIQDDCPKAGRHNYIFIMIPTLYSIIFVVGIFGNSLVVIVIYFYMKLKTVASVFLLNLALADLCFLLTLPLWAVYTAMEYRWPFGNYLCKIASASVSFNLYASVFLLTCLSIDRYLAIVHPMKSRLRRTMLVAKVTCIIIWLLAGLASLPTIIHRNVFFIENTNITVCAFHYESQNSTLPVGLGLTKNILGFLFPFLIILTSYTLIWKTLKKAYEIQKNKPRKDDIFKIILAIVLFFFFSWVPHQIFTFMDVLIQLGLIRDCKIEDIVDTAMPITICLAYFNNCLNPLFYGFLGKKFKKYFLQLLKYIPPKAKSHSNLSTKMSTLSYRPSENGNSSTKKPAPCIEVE
Procedure: An experiment of inhibition on the binding of angiotensin II (AII) to AII receptor was conducted by modifying the method of Douglas et al. [Endocrinology, 102, 685-696 (1978)]. An AII receptor membrane fraction was prepared from bovine adrenal cortex.
The compound of the present invention (10^-6 M or 10^-7 M) and ^125 I-angiotensin II (^125 I-AII) (2.44kBq/50 μl) were added to the receptor membrane fraction, and the mixture was incubated at room temperature for one hour. The receptor-bound and free ^125 I-AII were separated through a filter (Whatman GF/B filter), and the radioactivity of ^125 I-AII bound to the receptor was determined.

pressor action of AII = assay: Inhibitory effect on pressor action of AII in rats after oral administration; assay type: in vivo, Jcl:SD rats; conditions: 1 mg/kg p.o., percent inhibition of pressor action of AII 100 ng/kg i.v.
Procedure: Jcl:SD rats (9 week old, male) were used. On the previous day of the experiment, these animals were applied with cannulation into the femoral artery and vein under anesthesia with pentobarbital Na. These animals were fasted but allowed to access freely to drinking water until the experiment was started. Just on the day of conducting the experiment, the artery cannula was connected with a blood-pressure transducer, and the average blood pressure was recorded by means of polygraph. Before administration of the drug, the pressor action due to intravenous administration of AII (100 ng/kg) as the control was determined. The drugs were orally administered, then, at each point of the determination, AII was administered intravenously, and the pressor action was similarly determined. By comparing the pressor action before and after administration of the drug, the percent inhibition by the drug was evaluated.

CCCCc1n[nH]c(C(=O)OC)c1Cc1ccc(-c2ccccc2-c2nsc(=O)[nH]2)cc1 [compound 3]
inhibition at 1 µM (AII receptor): 17%
inhibition at 0.1 µM (AII receptor): 7%
Pressor-inhibitory action (pressor action of AII): +++ (+++ ≥ 70%)

CCCCc1nn(-c2ccccc2Cl)c(C(=O)O)c1Cc1ccc(-c2ccccc2-c2noc(=O)[nH]2)cc1 [compound 6]
inhibition at 1 µM (AII receptor): 32%
Pressor-inhibitory action (pressor action of AII): ++ (70% > ++ ≥ 50%)

CCCCc1nn(-c2ccccc2Cl)c(C(=O)O)c1Cc1ccc(-c2ccccc2-c2nsc(=O)[nH]2)cc1 [compound 8]
inhibition at 1 µM (AII receptor): 37%
Pressor-inhibitory action (pressor action of AII): +++ (+++ ≥ 70%)

CCCCc1n[nH]c(C(=O)O)c1Cc1ccc(-c2ccccc2-c2nc(=O)o[nH]2)cc1 [Working Example 2, 3-Butyl-4-[2'-(2,5-dihydro-5-oxo-1,2,4-oxadiazol-3-yl)biphenyl-4-yl]methylpyrazole-5-carboxylic acid]
inhibition at 1 µM (AII receptor): 68%
inhibition at 0.1 µM (AII receptor): 30%
Pressor-inhibitory action (pressor action of AII): + (50% > +-)
